Reference: ChEMBL document CHEMBL1133236, “Synthesis and antifungal activities of 5/6-arylamino-4,7-dioxobenzothiazoles” (Bioorg Med Chem Lett, 2000)
Converted amounts (≈) assume the structure as drawn.

Key:
Aspergillus niger = assay: Antifungal activity against Aspergillus niger KCTC 1231; format: functional
Candida tropicalis = assay: Antifungal activity against Candida tropicalis ATCC 28775; format: functional
HepG2 = assay: In vitro cytotoxicity against HepG2 cells (Hepatocarcinoma from ATCC) by MTT assay; format: functional, cell-based, Homo sapiens
Candida albicans = assay: Antifungal activity against Candida albicans ATCC 10231; format: functional
Pichia kudriavzevii = assay: Antifungal activity against Candida krusei ATCC 749; format: functional
[1] = Homo sapiens, HepG2, read-out: IC50

| MIC (Aspergillus niger) [µg/mL] | MIC (Candida tropicalis) [µg/mL] | MIC (Candida albicans) [µg/mL] | MIC (Pichia kudriavzevii) [µg/mL] | Compound | IC50 (HepG2; [1]) [µg/mL] | IC50 (HepG2; hepg2) [µg/mL] |
| --- | --- | --- | --- | --- | --- | --- |
| 12.5 (≈ 46.2 µM) | 1.6 (≈ 5.92 µM) | 6.3 (≈ 23.3 µM) | 0.4 (≈ 1.48 µM) | Cc1nc2c(s1)C(=O)C=C(Nc1ccccc1)C2=O | 1.5 (≈ 5.55 µM) |  |
|  |  |  |  | CISPLATIN |  | 0.33 |
| 3.2 (≈ 11.1 µM) | 6.3 (≈ 21.9 µM) | 3.2 (≈ 11.1 µM) | 3.2 (≈ 11.1 µM) | Cc1nc2c(s1)C(=O)C=C(Nc1ccc(F)cc1)C2=O | 1.6 (≈ 5.55 µM) |  |
| 12.5 (≈ 41.9 µM) | 0.4 (≈ 1.34 µM) | 12.5 (≈ 41.9 µM) | 3.2 (≈ 10.7 µM) | Cc1nc2c(s1)C(=O)C=C(Nc1ccc(C)c(C)c1)C2=O | 4.8 (≈ 16.1 µM) |  |
| 3.2 (≈ 12.5 µM) | 6.3 (≈ 24.6 µM) | 12.5 (≈ 48.8 µM) | 6.3 (≈ 24.6 µM) | O=C1C=C(Nc2ccccc2)C(=O)c2scnc21 | 14.7 (≈ 57.4 µM) |  |
| 6.3 (≈ 20.7 µM) | 25 (≈ 82 µM) | 12.5 (≈ 41 µM) | 25 (≈ 82 µM) | Cc1nc2c(s1)C(=O)C=C(Nc1ccc(Cl)cc1)C2=O | 3.4 (≈ 11.2 µM) |  |
| 12.5 (≈ 41 µM) | 6.3 (≈ 20.7 µM) | 12.5 (≈ 41 µM) | 6.3 (≈ 20.7 µM) | Cc1nc2c(s1)C(=O)C=C(Nc1cccc(Cl)c1)C2=O | 5.7 (≈ 18.7 µM) |  |
| 6.3 (≈ 18.6 µM) | 12.5 (≈ 36.9 µM) | 12.5 (≈ 36.9 µM) | 3.2 (≈ 9.46 µM) | Cc1nc2c(s1)C(=O)C=C(Nc1ccc(C(F)(F)F)cc1)C2=O | > 100 |  |
| 6.3 (≈ 17.8 µM) | 0.8 (≈ 2.26 µM) | 12.5 (≈ 35.3 µM) | 25 (≈ 70.6 µM) | Cc1nc2c(s1)C(=O)C=C(Nc1ccc(OC(F)(F)F)cc1)C2=O | > 100 |  |
| 12.5 (≈ 35.8 µM) | 0.8 (≈ 2.29 µM) | 12.5 (≈ 35.8 µM) | 6.3 (≈ 18 µM) | Cc1nc2c(s1)C(=O)C=C(Nc1cccc(Br)c1)C2=O | 15 (≈ 43 µM) |  |
| 12.5 (≈ 35.3 µM) | 6.3 (≈ 17.8 µM) | 12.5 (≈ 35.3 µM) | 12.5 (≈ 35.3 µM) | CCCCCCc1ccc(NC2=CC(=O)c3sc(C)nc3C2=O)cc1 | 22 (≈ 62.1 µM) |  |
| 3.2 (≈ 11.7 µM) | 6.3 (≈ 23 µM) | 12.5 (≈ 45.6 µM) | 3.2 (≈ 11.7 µM) | O=C1C=C(Nc2ccc(F)cc2)C(=O)c2scnc21 | 17.9 (≈ 65.3 µM) |  |
| 3.2 (≈ 10.7 µM) | 12.5 (≈ 41.6 µM) | 12.5 (≈ 41.6 µM) | 6.3 (≈ 21 µM) | CCOc1ccc(NC2=CC(=O)c3ncsc3C2=O)cc1 | 23.6 (≈ 78.6 µM) |  |
| 1.6 (≈ 5.83 µM) | 12.5 (≈ 45.6 µM) | 12.5 (≈ 45.6 µM) | 3.2 (≈ 11.7 µM) | O=C1C=C(Nc2cccc(F)c2)C(=O)c2scnc21 | > 100 |  |
| 1.6 (≈ 12.4 µM) | 50 (≈ 387 µM) | 3.2 (≈ 24.8 µM) | 3.2 (≈ 24.8 µM) | Nc1nc(=O)[nH]cc1F [FLUCYTOSINE] |  |  |
| 25 (≈ 128 µM) | 25 (≈ 128 µM) | 50 (≈ 256 µM) | 12.5 (≈ 64 µM) | COC1=CC(=O)c2ncsc2C1=O |  |  |
| 1.6 (≈ 5.09 µM) | 6.3 (≈ 20 µM) | 3.2 (≈ 10.2 µM) | 3.2 (≈ 10.2 µM) | CCOc1ccc(NC2=CC(=O)c3sc(C)nc3C2=O)cc1 | 4.9 (≈ 15.6 µM) |  |
| 3.2 (≈ 9.4 µM) | 12.5 (≈ 36.7 µM) | 12.5 (≈ 36.7 µM) | 3.2 (≈ 9.4 µM) | O=C1C=C(Nc2ccc(OC(F)(F)F)cc2)C(=O)c2scnc21 | > 100 |  |
| 12.5 (≈ 43 µM) | 12.5 (≈ 43 µM) | 12.5 (≈ 43 µM) | 25 (≈ 86 µM) | O=C1C=C(Nc2ccc(Cl)cc2)C(=O)c2scnc21 | 16.4 (≈ 56.4 µM) |  |
| 12.5 (≈ 59.7 µM) | 25 (≈ 119 µM) | 25 (≈ 119 µM) | 50 (≈ 239 µM) | COC1=CC(=O)c2sc(C)nc2C1=O |  |  |

| Compound | MIC (Aspergillus niger) [µg/mL] | MIC (Candida tropicalis) [µg/mL] | MIC (Candida albicans) [µg/mL] | MIC (Pichia kudriavzevii) [µg/mL] | IC50 (HepG2; [1]) [µg/mL] | IC50 (HepG2; hepg2) [µg/mL] |
| --- | --- | --- | --- | --- | --- | --- |
| Cc1ccc(NC2=CC(=O)c3sc(C)nc3C2=O)cc1 | 12.5 (≈ 44 µM) | 1.6 (≈ 5.63 µM) | 6.3 (≈ 22.2 µM) | 1.6 (≈ 5.63 µM) | 1.2 (≈ 4.22 µM) |  |
